In ChEMBL document CHEMBL5584340, “Discovery of Novel Antiosteoporosis Leads with Bone Resorption Inhibition and Anabolic Promotion through a Chemotype-Assembly Approach” (J Med Chem, 2024):
Activity calls are given as the source filed them. No cut-off for these calls is given here.

Experiments:
[1] = Toxicity in OVX-induced osteoporosis C57BL/6 mouse model assessed as change in serum urea nitrogen level at 10 mg/kg,po administrated for 4 week; assay type: organism-based; conditions: in vivo, 672 h, time 4 weeks
Mus musculus [2] = assay: Anti-osteoporosis activity in OVX-induced osteoporosis C57BL/6 mouse model assessed as increase in BV/TV in femur at 10 mg/kg,po administrated for 4 weeks by Micro-CT analysis; assay type: functional, organism-based
C3H 10T1/2 [3] = assay: Induction of osteoblastogenesis in mouse C3H 10T1/2 cells assessed as upregulation of ALP gene expression at 1 uM incubated for 7 days by RT-qPCR analysis; assay type: functional, cell-based; conditions: time 7.0 day
[4] = Toxicity in OVX-induced osteoporosis C57BL/6 mouse model assessed as change in serum total cholesterol level at 10 mg/kg,po administrated for 4 week; assay type: organism-based; conditions: in vivo, 672 h, time 4 weeks
BMDM [5] = assay: Anti-osteoclastogenic activity in M-CSF/RANKL-induced C57BL/6 mouse BMDM cells assessed as downregulation of TRACP mRNA expression at 1 uM incubated for 7 days by RT-qPCR analysis; assay type: functional, cell-based; conditions: time 7.0 day
C3H 10T1/2 [6] = assay: Induction of osteoblastogenesis in mouse C3H 10T1/2 cells assessed as upregulation of SP7 gene expression at 1 uM incubated for 7 days by RT-qPCR analysis; assay type: functional, cell-based; conditions: time 7.0 day
C3H 10T1/2 [7] = assay: Induction of osteoblastogenesis in mouse C3H 10T1/2 cells assessed as upregulation of SPARC gene expression at 1 uM incubated for 7 days by RT-qPCR analysis; assay type: functional, cell-based; conditions: time 7.0 day
Mus musculus [8] = assay: Anti-osteoporosis activity in OVX-induced osteoporosis C57BL/6 mouse model assessed as increase in […] in femur at 10 mg/kg,po administrated for 4 weeks by Micro-CT analysis; assay type: functional, organism-based
Mus musculus [9] = assay: Anti-osteoporosis activity in OVX-induced osteoporosis C57BL/6 mouse model assessed as increase in serum osteocalcin level at 10 mg/kg,po administrated for 4 weeks; assay type: functional, organism-based
BMDM [10] = assay: Anti-osteoclastogenic activity in M-CSF/RANKL-induced C57BL/6 mouse BMDM cells assessed as downregulation of CTSK mRNA expression at 1 uM incubated for 7 days by RT-qPCR analysis; assay type: functional, cell-based; conditions: time 7.0 day
[11] = Toxicity in OVX-induced osteoporosis C57BL/6 mouse model assessed as change in serum triglyceride level at 10 mg/kg,po administrated for 4 week; assay type: organism-based; conditions: in vivo, 672 h, time 4 weeks
Mus musculus [12] = assay: Anti-osteoporosis activity in OVX-induced osteoporosis C57BL/6 mouse model assessed as increase in trabecular number in femur at 10 mg/kg,po administrated for 4 weeks by Micro-CT analysis; assay type: functional, organism-based
Mus musculus [13] = assay: Anti-osteoporosis activity in OVX-induced osteoporosis C57BL/6 mouse model assessed as increase in serum PINP level at 10 mg/kg,po administrated for 4 weeks; assay type: functional, organism-based
[14] = Toxicity in OVX-induced osteoporosis C57BL/6 mouse model assessed as change in hair color at 30 mg/kg,po administrated for 1 week; assay type: organism-based; conditions: in vivo, 168 h, time 1 weeks
C3H 10T1/2 [15] = assay: Induction of osteoclastogenesis in mouse C3H 10T1/2 cells assessed as upregulation of RANKL gene expression at 1 uM incubated for 7 days by RT-qPCR analysis; assay type: functional, cell-based; conditions: time 7.0 day
[16] = Toxicity in OVX-induced osteoporosis C57BL/6 mouse model assessed as change in water intake at 30 mg/kg,po administrated for 1 week; assay type: organism-based; conditions: in vivo, 168 h, time 1 weeks
[17] = Toxicity in OVX-induced osteoporosis C57BL/6 mouse model assessed as change in serum creatinine level at 10 mg/kg,po administrated for 4 week; assay type: organism-based; conditions: in vivo, 672 h, time 4 weeks
[18] = Toxicity in OVX-induced osteoporosis C57BL/6 mouse model assessed as change in body weight at 30 mg/kg,po administrated for 1 week; assay type: organism-based; conditions: in vivo, 168 h, time 1 weeks
C3H 10T1/2 [19] = assay: Induction of osteoblast differentiation in mouse C3H 10T1/2 cells at 1 uM incubated for 7 days by ALP staining based analysis; assay type: functional, cell-based; conditions: time 7.0 day
BMDM [20] = assay: Anti-osteoclastogenic activity in M-CSF/RANKL-induced C57BL/6 mouse BMDM cells assessed as inhibition of M-CSF/RANKL-stimulated osteoclast differentiation measured after 5 days by TRAP staining based microscopic analysis; assay type: functional, cell-based; conditions: C57BL/6, BMDM, 120 h
BMDM [21] = assay: Anti-osteoclastogenic activity in M-CSF/RANKL-induced C57BL/6 mouse BMDM cells assessed as downregulation of C-Fos mRNA expression at 1 uM incubated for 7 days by RT-qPCR analysis; assay type: functional, cell-based; conditions: time 7.0 day
Mus musculus [22] = assay: Anti-osteoporosis activity in OVX-induced osteoporosis C57BL/6 mouse model assessed as increase in trabecular thickness in femur at 10 mg/kg,po administrated for 4 weeks by Micro-CT analysis; assay type: functional, organism-based
[23] = Cytotoxicity against mouse RAW264.7 cells incubated for 48 hrs by CCK-8 assay; assay type: toxicity, cell-based
[24] = Toxicity in OVX-induced osteoporosis C57BL/6 mouse model assessed as change in serum AST level at 10 mg/kg,po administrated for 4 week; assay type: organism-based; conditions: in vivo, 672 h, time 4 weeks
[25] = Toxicity in OVX-induced osteoporosis C57BL/6 mouse model assessed as change in mental state at 30 mg/kg,po administrated for 1 week; assay type: organism-based; conditions: in vivo, 168 h, time 1 weeks
Mus musculus [26] = assay: Anti-osteoporosis activity in OVX-induced osteoporosis C57BL/6 mouse model assessed as decrease in serum CTX-I level at 10 mg/kg,po administrated for 4 weeks; assay type: functional, organism-based
[27] = Toxicity in OVX-induced osteoporosis C57BL/6 mouse model assessed as change in serum ALT level at 10 mg/kg,po administrated for 4 week; assay type: organism-based; conditions: in vivo, 672 h, time 4 weeks
BMDM [28] = assay: Anti-osteoclastogenic activity in M-CSF/RANKL-induced C57BL/6 mouse BMDM cells assessed as fold change in inhibition of M-CSF/RANKL-stimulated osteoclast differentiation at 10 uM measured after 5 days by TRAP staining based microscopic analysis relative to control; assay type: functional; conditions: time 5 day
C3H 10T1/2 [29] = assay: Induction of osteoblast mineralization in mouse C3H 10T1/2 cells assessed as increase in calcium deposition at 1 uM measured after 14 days by Alizarin Red S staining based analysis; assay type: functional, cell-based; conditions: time 14.0 day
[30] = Toxicity in OVX-induced osteoporosis C57BL/6 mouse model assessed as change in urine color at 30 mg/kg,po administrated for 1 week; assay type: organism-based; conditions: in vivo, 168 h, time 1 weeks
Mus musculus [31] = assay: Anti-osteoporosis activity in OVX-induced osteoporosis C57BL/6 mouse model assessed as prevention of bone loss in femur at 10 mg/kg,po administrated for 4 weeks by Micro-CT analysis; assay type: functional, organism-based
[32] = Toxicity in OVX-induced osteoporosis C57BL/6 mouse model assessed as change in stool state at 30 mg/kg,po administrated for 1 week; assay type: organism-based; conditions: in vivo, 168 h, time 1 weeks
BMDM [33] = assay: Anti-osteoclastogenic activity in M-CSF/RANKL-induced C57BL/6 mouse BMDM cells assessed as downregulation of ATP6VOD2 mRNA expression at 1 uM incubated for 7 days by RT-qPCR analysis; assay type: functional, cell-based; conditions: time 7.0 day

Question: With `O=C(O)c1cc2ccccc2cc1C(=O)Nc1nc2ccccc2s1` as the compound, how does the Activity [1] read?
Answer: Non-Toxic

Question: And the Activity (Mus musculus [2])?
Answer: Active

Question: And the Activity (C3H 10T1/2 [3])?
Answer: Active

Question: What about the Activity [4] of the same compound?
Answer: Non-Toxic

Question: And the Activity (BMDM [5])?
Answer: Active

Question: And the Activity (C3H 10T1/2 [6])?
Answer: Active

Question: And the Activity (C3H 10T1/2 [7])?
Answer: Active

Question: And the Activity (Mus musculus [8])?
Answer: Active

Question: What about the Activity (Mus musculus [9]) of the same compound?
Answer: Active

Question: And the Activity (BMDM [10])?
Answer: Active

Question: What about the Activity [11] of the same compound?
Answer: Non-Toxic

Question: What about the Activity (Mus musculus [12]) of the same compound?
Answer: Active

Question: What about the Activity (Mus musculus [13]) of the same compound?
Answer: Active

Question: What about the Activity [14] of the same compound?
Answer: Non-Toxic

Question: And the Activity (C3H 10T1/2 [15])?
Answer: inactive

Question: What about the Activity [16] of the same compound?
Answer: Non-Toxic

Question: And the Activity [17]?
Answer: Non-Toxic

Question: What about the Activity [18] of the same compound?
Answer: Non-Toxic

Question: And the Activity (C3H 10T1/2 [19])?
Answer: Active

Question: What about the IC50 (BMDM [20]) of the same compound?
Answer: 0.4 µM

Question: And the Activity (BMDM [21])?
Answer: Active

Question: What about the Activity (Mus musculus [22]) of the same compound?
Answer: Active

Question: And the CC50 at 48 h [23]?
Answer: 65.5 µM

Question: And the Activity [24]?
Answer: Non-Toxic

Question: What about the Activity [25] of the same compound?
Answer: Non-Toxic

Question: What about the Activity (Mus musculus [26]) of the same compound?
Answer: Active

Question: What about the Activity [27] of the same compound?
Answer: Non-Toxic

Question: And the “fold change (FC)” value (BMDM [28])?
Answer: 21.25

Question: And the Activity (C3H 10T1/2 [29])?
Answer: Active

Question: And the Activity [30]?
Answer: Non-Toxic

Question: What about the Activity (Mus musculus [31]) of the same compound?
Answer: Active

Question: What about the Activity [32] of the same compound?
Answer: Non-Toxic

Question: What about the Activity (BMDM [33]) of the same compound?
Answer: Active
